Tests used:
[1] = Absorbability of compound (1) in cynomolgus monkey by oral administration of tablets; type: in vivo
Source text: Blood was periodically collected, plasma was isolated, and then plasma concentration of unchanged was quantified with HPLC.

[2] = rat, in vivo, po; cited from earlier work

| Structure (SMILES) | Oral absorbability compared to rat and mouse [1] | Tmax compared to rat and mouse [1] | bioavailability [2] |
| --- | --- | --- | --- |
| C[C@@H]1OC(=O)NC1C(=O)N[C@@H](Cc1cscn1)C(=O)N1CCC[C@H]1C (stereo partly drawn) [compound (1)] | decreased absorbability | markedly delayed Tmax | – |
| CN1C(=O)C[C@@H](C(=O)N[C@@H](Cc2c[nH]cn2)C(=O)N2CCC[C@H]2C(N)=O)NC1=O [taltirelin] | – | – | 3.9% |
